{"source": "patent US4559323A", "about": "“A41030 Antibiotics” (Eli Lilly and Company, priority 1984, dated 1985)", "key": {"[1]": {"assay": "Electrometric titration (pKa)", "format": "physicochemical", "settings": "electrometric titration in 66% dimethylformamide in water"}, "Solubility in solvents": {"assay": "Solubility in solvents", "format": "physicochemical", "settings": "solvents as named", "text": "The seven antibiotic factors are recovered from the fermentation and are obtained as a mixture, the A41030 complex. It will be recognized that the ratio of the factors in the A41030 complex will vary, depending upon the fermentation conditions used. The individual factors […], and G are separated and isolated as individual compounds, as hereinafter described."}, "Staphylococcus aureus": {"test_system": "Staphylococcus aureus", "assay": "Agar-dilution MIC", "format": "cell-based", "settings": "Table 17, 24 hours"}, "Hemophilus influenzae": {"test_system": "Hemophilus influenzae", "assay": "Agar-dilution MIC", "format": "cell-based", "settings": "Table 17, 24 hours"}, "[2]": {"test_system": "Staphylococcus epidermidis", "assay": "Agar-dilution MIC", "format": "cell-based", "settings": "Table 17; 24 hours; Staphylococcus epidermidis EPI1", "text": "(§1) The agar-dilution procedure described by the International Collaborative study (ICS) group was used to determine the minimum inhibitory concentrations (MIC's)."}, "Streptococcus pneumoniae": {"test_system": "Streptococcus pneumoniae", "assay": "Agar-dilution MIC", "format": "cell-based", "settings": "Table 17; 24 hours; Streptococcus pneumoniae Park I", "text": "as §1"}, "Streptococcus pyogenes": {"test_system": "Streptococcus pyogenes", "assay": "Agar-dilution MIC", "format": "cell-based", "settings": "Table 17; 24 hours; Streptococcus pyogenes C203", "text": "as §1"}, "[3]": {"test_system": "Streptococcus sp. (Group D)", "assay": "Agar-dilution MIC", "format": "cell-based", "settings": "Table 17, 24 hours", "text": "as §1"}, "Bacteroides fragilis": {"test_system": "Bacteroides fragilis", "assay": "Agar-dilution MIC (anaerobes)", "format": "cell-based", "settings": "Table 14", "text": "as §1"}, "B. thetaiotaomicron": {"test_system": "B. thetaiotaomicron", "format": "cell-based", "settings": "Table 14; Bacteroides thetalotaomicron 1438", "text": "as §1"}, "Propionibacterium acnes": {"test_system": "Propionibacterium acnes", "assay": "Agar-dilution MIC (anaerobes)", "format": "cell-based", "settings": "Table 14; Propionibacterium acnes 79", "text": "Antibiotic A41030 factors A, B and C have also been tested and found to be active against a genus of anaerobic bacteria identified as Propionibacterium acnes."}, "Clostridium difficile [4]": {"test_system": "Clostridium difficile", "format": "cell-based", "settings": "Table 16", "text": "The A41030 antibiotic factors A, B, C, D, E, F, and G, are also active against a number of strains of Clostridium difficile, as determined by the agar-dilution method."}, "Clostridium perfringens": {"test_system": "Clostridium perfringens", "format": "cell-based", "settings": "Table 14; Clostridium perfringens 81"}, "Clostridium septicum": {"test_system": "Clostridium septicum", "assay": "Agar-dilution MIC (anaerobes)", "format": "cell-based", "settings": "Table 14; Clostridium septicum 1128"}, "Eubacterium aerofaciens": {"test_system": "Eubacterium aerofaciens", "assay": "Agar-dilution MIC (anaerobes)", "format": "cell-based", "settings": "Table 14; Eubacterium aerofaciens 1235"}, "Peptococcus prevoti": {"test_system": "Peptococcus prevoti", "assay": "Agar-dilution MIC (anaerobes)", "format": "cell-based", "settings": "Table 14; Peptococcus prevoti 1281"}, "[5]": {"test_system": "Peptostreptococcus anaerobius", "assay": "Agar-dilution MIC (anaerobes)", "format": "cell-based", "settings": "Table 14; Peptostreptococcus anaerobius 1428"}, "[6]": {"test_system": "Peptostreptococcus intermedius", "assay": "Agar-dilution MIC (anaerobes)", "format": "cell-based", "settings": "Table 14; Peptostreptococcus intermedius 1264"}, "[7]": {"test_system": "Bacteroides melaninogenicus", "assay": "Agar-dilution MIC (anaerobes)", "format": "cell-based", "settings": "Table 14; Bacteroides melaninogenicus 2736"}, "Fusobacterium symbiosum": {"test_system": "Fusobacterium symbiosum", "assay": "Agar-dilution MIC (anaerobes)", "format": "cell-based", "settings": "Table 14; Fusobacterium symbiosum 1470"}, "[8]": {"test_system": "Fusobacterium necrophorum", "assay": "Agar-dilution MIC (anaerobes)", "format": "cell-based", "settings": "Table 14; Fusobacterium necrophorum 6054A"}, "Salmonella typhi": {"test_system": "Salmonella typhi", "assay": "Agar-dilution MIC", "format": "cell-based", "settings": "Table 17, 24 hours"}, "S. pneumoniae": {"test_system": "S. pneumoniae", "assay": "Experimental bacterial infection in mice, subcutaneous ED50", "format": "in vivo", "settings": "two doses subcutaneously", "procedure": "(§2) All of the A41030 factors tested have shown in vivo antimicrobial activity against experimental bacterial infections. When two doses of test compound were administered subcutaneously to mice in illustrative infections, the activity observed is measured as an ED50 value [effective dose in mg./kg. to protect fifty percent of the test animals: See Warren Wick, et al., J. Bacteriol. 81, 233-235 (1961)]."}, "S. pyogenes": {"test_system": "S. pyogenes", "assay": "Experimental bacterial infection in mice, subcutaneous ED50", "format": "in vivo", "settings": "two doses subcutaneously", "procedure": "as §2"}, "Staph. aureus": {"test_system": "Staph. aureus", "assay": "Experimental bacterial infection in mice, subcutaneous ED50", "format": "in vivo", "settings": "two doses subcutaneously", "procedure": "as §2"}, "Bacteroides corrodens": {"test_system": "Bacteroides corrodens", "assay": "Agar-dilution MIC (anaerobes)", "format": "cell-based", "settings": "Table 14; Bacteroides corrodens 1874"}, "Bacteroides vulgatis": {"test_system": "Bacteroides vulgatis", "assay": "Agar-dilution MIC (anaerobes)", "format": "cell-based", "settings": "Table 14; Bacteroides vulgatis 1211"}, "Clostridium difficile [9]": {"test_system": "Clostridium difficile", "format": "cell-based", "settings": "Table 14; Clostridium difficile 2994"}, "[10]": {"test_system": "Peptococcus asaccharolyticus", "assay": "Agar-dilution MIC (anaerobes)", "format": "cell-based", "settings": "Table 14; Peptococcus asaccharolyticus 1302"}}, "note": "Like-named read-outs stand apart in the source and are kept apart here."}
{"substance": "A41030 factor E", "values": [{"measurement": "pKa, first titratable group", "setting": "[1]", "result": "about 5.8"}, {"measurement": "pKa, second titratable group", "setting": "[1]", "result": "~7.7"}, {"measurement": "Solubility", "setting": "Solubility in solvents", "result": "soluble in the same solvents as factor A"}, {"measurement": "MIC", "setting": "Staphylococcus aureus; Staphylococcus aureus 3055", "result": 0.125, "unit": "µg/mL"}, {"measurement": "MIC", "setting": "Staphylococcus aureus; Staphylococcus aureus S13E", "result": 0.25, "unit": "µg/mL"}, {"measurement": "MIC", "setting": "Staphylococcus aureus; Staphylococcus aureus V41", "result": 0.25, "unit": "µg/mL"}, {"measurement": "MIC", "setting": "Staphylococcus aureus; Staphylococcus aureus X400", "result": 0.25, "unit": "µg/mL"}, {"measurement": "MIC", "setting": "Hemophilus influenzae; Haemophilus influenzae 76", "result": 8, "unit": "µg/mL"}, {"measurement": "MIC", "setting": "Hemophilus influenzae; Haemophilus influenzae C.L.", "result": 8, "unit": "µg/mL"}, {"measurement": "MIC", "setting": "[2]", "result": 0.25, "unit": "µg/mL"}, {"measurement": "MIC", "setting": "Streptococcus pneumoniae", "result": 0.25, "unit": "µg/mL"}, {"measurement": "MIC", "setting": "Streptococcus pyogenes", "result": 0.25, "unit": "µg/mL"}, {"measurement": "MIC", "setting": "[3]; Streptococcus sp. Group D 9960", "result": 1, "unit": "µg/mL"}, {"measurement": "MIC", "setting": "[3]; Streptococcus sp. Group D X66", "result": 1, "unit": "µg/mL"}, {"measurement": "MIC", "setting": "Bacteroides fragilis; Bacteroides fragilis 111", "result": 64, "unit": "µg/mL"}, {"measurement": "MIC", "setting": "Bacteroides fragilis; Bacteroides fragilis 1877", "result": 32, "unit": "µg/mL"}, {"measurement": "MIC", "setting": "Bacteroides fragilis; Bacteroides fragilis 1936B", "result": 64, "unit": "µg/mL"}, {"measurement": "MIC", "setting": "B. thetaiotaomicron", "result": 64, "unit": "µg/mL"}, {"measurement": "MIC", "setting": "Propionibacterium acnes", "result": 0.5, "unit": "µg/mL"}, {"measurement": "MIC", "setting": "Clostridium difficile [4]; C. difficile 78", "result": 0.5, "unit": "µg/mL"}, {"measurement": "MIC", "setting": "Clostridium difficile [4]; C. difficile 107B", "result": 0.5, "unit": "µg/mL"}, {"measurement": "MIC", "setting": "Clostridium difficile [4]; C. difficile 111F", "result": 0.5, "unit": "µg/mL"}, {"measurement": "MIC", "setting": "Clostridium difficile [4]; C. difficile 1153", "result": 1.0, "unit": "µg/mL"}, {"measurement": "MIC", "setting": "Clostridium difficile [4]; C. difficile 2634", "result": 1.0, "unit": "µg/mL"}, {"measurement": "MIC", "setting": "Clostridium difficile [4]; C. difficile 3424-5B", "result": 0.5, "unit": "µg/mL"}, {"measurement": "MIC", "setting": "Clostridium difficile [4]; C. difficile 3816", "result": 0.5, "unit": "µg/mL"}, {"measurement": "MIC", "setting": "Clostridium difficile [4]; C. difficile 3950", "result": 0.5, "unit": "µg/mL"}, {"measurement": "MIC", "setting": "Clostridium difficile [4]; C. difficile 6890", "result": 0.5, "unit": "µg/mL"}, {"measurement": "MIC", "setting": "Clostridium difficile [4]; C. difficile 8484", "result": 0.5, "unit": "µg/mL"}, {"measurement": "MIC", "setting": "Clostridium difficile [4]; C. difficile A-194", "result": 0.5, "unit": "µg/mL"}, {"measurement": "MIC", "setting": "Clostridium difficile [4]; C. difficile A-195", "result": 0.5, "unit": "µg/mL"}, {"measurement": "MIC", "setting": "Clostridium difficile [4]; C. difficile A-196", "result": 1.0, "unit": "µg/mL"}, {"measurement": "MIC", "setting": "Clostridium difficile [4]; C. difficile A-279", "result": 0.5, "unit": "µg/mL"}, {"measurement": "MIC", "setting": "Clostridium difficile [4]; C. difficile A-280", "result": 0.5, "unit": "µg/mL"}, {"measurement": "MIC", "setting": "Clostridium difficile [4]; C. difficile A-281", "result": 1.0, "unit": "µg/mL"}, {"measurement": "MIC", "setting": "Clostridium difficile [4]; C. difficile WAL-2112", "result": 0.5, "unit": "µg/mL"}, {"measurement": "MIC", "setting": "Clostridium difficile [4]; C. difficile WAL-3657", "result": 0.5, "unit": "µg/mL"}, {"measurement": "MIC", "setting": "Clostridium difficile [4]; C. difficile WAL-4268", "result": 0.5, "unit": "µg/mL"}, {"measurement": "MIC", "setting": "Clostridium perfringens", "result": 1.0, "unit": "µg/mL"}, {"measurement": "MIC", "setting": "Clostridium septicum", "result": 0.5, "unit": "µg/mL"}, {"measurement": "MIC", "setting": "Eubacterium aerofaciens", "result": 0.5, "unit": "µg/mL"}, {"measurement": "MIC", "setting": "Peptococcus prevoti", "result": 32, "unit": "µg/mL"}, {"measurement": "MIC", "setting": "[5]", "result": 32, "unit": "µg/mL"}, {"measurement": "MIC", "setting": "[6]", "result": 32, "unit": "µg/mL"}, {"measurement": "MIC", "setting": "[7]", "result": 32, "unit": "µg/mL"}, {"measurement": "MIC", "setting": "Fusobacterium symbiosum", "result": 1.0, "unit": "µg/mL"}, {"measurement": "MIC", "setting": "[8]", "result": 0.5, "unit": "µg/mL"}, {"measurement": "MIC", "setting": "Salmonella typhi; Salmonella typhi 1335", "result": "> 128", "unit": "µg/mL"}, {"measurement": "MIC", "setting": "Salmonella typhi; Salmonella typhi X514", "result": "> 128", "unit": "µg/mL"}, {"measurement": "ED50", "setting": "S. pneumoniae", "result": 3.11, "unit": "mg/kg"}, {"measurement": "ED50", "setting": "S. pyogenes", "result": 3.54, "unit": "mg/kg"}, {"measurement": "ED50", "setting": "Staph. aureus", "result": "< 0.31", "unit": "mg/kg"}, {"measurement": "MIC", "setting": "Bacteroides corrodens", "result": 64, "unit": "µg/mL"}, {"measurement": "MIC", "setting": "Bacteroides vulgatis", "result": 32, "unit": "µg/mL"}, {"measurement": "MIC", "setting": "Clostridium difficile [9]", "result": 0.5, "unit": "µg/mL"}, {"measurement": "MIC", "setting": "[10]", "result": "≤ 0.25", "unit": "µg/mL"}]}
